# Laboratory results taken from patent US8362000B2, “Azetidinyl diamides as monoacylglycerol lipase inhibitors” (Janssen Pharmaceutica NV, priority 2009, dated 2013).
# Target: T1, mutant MGL (Homo sapiens, UniProt Q99685, L169S/L176S)
# T1 sequence (Q99685 1-303 L169S/L176S): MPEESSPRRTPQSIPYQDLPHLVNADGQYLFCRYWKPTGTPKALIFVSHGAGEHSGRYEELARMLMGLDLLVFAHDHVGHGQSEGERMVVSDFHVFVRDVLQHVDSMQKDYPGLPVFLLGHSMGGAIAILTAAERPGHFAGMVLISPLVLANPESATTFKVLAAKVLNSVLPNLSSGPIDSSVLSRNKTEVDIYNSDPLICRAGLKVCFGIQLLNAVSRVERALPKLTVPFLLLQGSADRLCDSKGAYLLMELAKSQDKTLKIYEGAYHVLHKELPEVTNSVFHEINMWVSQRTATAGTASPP
# Assay: MGL ThermoFluor assay - mutant
# Assay type: binding
# Details: ThermoFluor concentration-response, read-out: MGL mutant ThermoFluor Kd
row,Compound,Kd
1,"O=C(c1ccccc1)N1CCN(C2CN(C(=O)c3ccc(-c4ccc(Br)cc4)cc3)C2)CC1 [Cpd 83, 1-{1-[(4′-Bromobiphenyl-4-yl)carbonyl]azetidin-3-yl}-4-(phenylcarbonyl)piperazine]",111 nM
2,Cc1cc(C(=O)N2CC(N3CCN(C(=O)c4ccccc4)CC3)C2)ccc1-c1ccccc1 [Cpd 613],51 nM

# Same assay, conditions: ThermoFluor thermal stability binding assay, read-out: MGL mutant ThermoFluor Kd
row,Compound,Kd
1,"O=C(c1ccc(OCc2cccnc2)c(Cl)c1)N1CC(N2CCN(C(=O)c3nccs3)CC2)C1 [Cpd 402, 1-(1-{[3-Chloro-4-(pyridin-3-ylmethoxy)phenyl]carbon-yl}azetidin-3-yl)-4-(1,3-thiazol-2-ylcarbonyl)piperazine]",141 nM
2,"O=C(c1cc[nH]c1)N1CCN(C2CN(C(=O)c3ccc(-c4ccccc4)cc3)C2)CC1 [Cpd 311, 1-[1-(Biphenyl-4-ylcarbonyl)azetidin-3-yl]-4-(1H-pyrrol-3-ylcarbonyl)piperazine]",80 nM
3,"Cc1cc(C(=O)N2CC(N3CCN(C(=O)c4ccccc4)CC3)C2)ccc1-c1ccc(F)c(Cl)c1 [Cpd 259, 1-{1-[(3′-Chloro-4′-fluoro-2-methylbiphenyl-4-yl)carbonyl]azetidin-3-yl}-4-(phenylcarbonyl)piperazine]",7.7 nM
4,"O=C(c1ccc(OCc2ccncc2)cc1)N1CC(N2CCN(C(=O)c3nccs3)CC2)C1 [Cpd 403, 1-(1-{[4-(Pyridin-4-ylmethoxy)phenyl]carbonyl}azetidin-3-yl)-4-(1,3-thiazol-2-ylcarbonyl)piperazine]",338 nM

# Target: T2, MGL (Rattus norvegicus, UniProt Q8R431)
# T2 construct: one g rat brain was homogenized using a Polytron homogenizer; from tissue; host or cells: rat brain homogenate
# T2 sequence (Q8R431 1-303): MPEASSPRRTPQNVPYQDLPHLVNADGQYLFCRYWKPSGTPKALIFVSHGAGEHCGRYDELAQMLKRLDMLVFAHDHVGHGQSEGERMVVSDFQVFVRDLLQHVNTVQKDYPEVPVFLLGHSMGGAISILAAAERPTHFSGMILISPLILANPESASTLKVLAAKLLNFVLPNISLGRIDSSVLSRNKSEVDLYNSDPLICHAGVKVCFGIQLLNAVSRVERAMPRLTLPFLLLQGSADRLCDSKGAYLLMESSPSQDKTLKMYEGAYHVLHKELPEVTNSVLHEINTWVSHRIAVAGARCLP
# Assay: 2-AG accumulation assay in rat brain homogenate
# Assay type: biochemical
# Details: rat brain homogenate; compound 1 μM; 2-AG accumulation as percent of vehicle; read-out: Rat Brain 2AG % VehCntrl (%) @ 1 μM
row,Compound,"2-AG accumulation, % of vehicle control at 1 µM"
1,"O=C(c1ccc(OCc2cccnc2)c(Cl)c1)N1CC(N2CCN(C(=O)c3nccs3)CC2)C1 [Cpd 402, 1-(1-{[3-Chloro-4-(pyridin-3-ylmethoxy)phenyl]carbon-yl}azetidin-3-yl)-4-(1,3-thiazol-2-ylcarbonyl)piperazine]",97%
2,"O=C(c1cc[nH]c1)N1CCN(C2CN(C(=O)c3ccc(-c4ccccc4)cc3)C2)CC1 [Cpd 311, 1-[1-(Biphenyl-4-ylcarbonyl)azetidin-3-yl]-4-(1H-pyrrol-3-ylcarbonyl)piperazine]",125%
3,"O=C(c1ccccc1)N1CCN(C2CN(C(=O)c3ccc(-c4ccc(Br)cc4)cc3)C2)CC1 [Cpd 83, 1-{1-[(4′-Bromobiphenyl-4-yl)carbonyl]azetidin-3-yl}-4-(phenylcarbonyl)piperazine]",105%
4,Cc1cc(C(=O)N2CC(N3CCN(C(=O)c4ccccc4)CC3)C2)ccc1-c1ccccc1 [Cpd 613],165%
5,"Cc1cc(C(=O)N2CC(N3CCN(C(=O)c4ccccc4)CC3)C2)ccc1-c1ccc(F)c(Cl)c1 [Cpd 259, 1-{1-[(3′-Chloro-4′-fluoro-2-methylbiphenyl-4-yl)carbonyl]azetidin-3-yl}-4-(phenylcarbonyl)piperazine]",156%
6,"O=C(c1ccc(OCc2ccncc2)cc1)N1CC(N2CCN(C(=O)c3nccs3)CC2)C1 [Cpd 403, 1-(1-{[4-(Pyridin-4-ylmethoxy)phenyl]carbonyl}azetidin-3-yl)-4-(1,3-thiazol-2-ylcarbonyl)piperazine]",188%
7,O=C(c1ccc2c(c1)CCN(S(=O)(=O)c1ccccc1)C2)N1CC(N2CCN(C(=O)c3nccs3)CC2)C1 [Cpd 927],850%
8,O=C(c1ccc2c(c1)ncn2-c1ccc(F)c(F)c1)N1CC(N2CCN(C(=O)c3nccs3)CC2)C1 [Cpd 1186],393%
9,"O=C(c1ccc(C(F)(F)F)cc1)N1CCc2cc(C(=O)N3CC(N4CCN(C(=O)c5nccs5)CC4)C3)ccc2C1 [Cpd 907, 6-({3-[4-(1,3-Thiazol-2-ylcarbonyl)piperazin-1-yl]azetidin-1-yl}carbonyl)-2-{[4-(trifluoromethyl)phenyl]carbonyl}-1,2,3,4-tetrahydroisoquinoline]",867%
10,NC(=O)c1ccc(-n2ccc3cc(C(=O)N4CC(N5CCN(C(=O)c6nccs6)CC5)C4)ccc32)cc1 [Cpd 1171],839%
11,"O=C(c1ccc2nc(-c3cccc(C(F)(F)F)c3)oc2c1)N1CC(N2CCN(C(=O)c3cscn3)CC2)C1 [Cpd 1151, 6-({3-[4-(1,3-Thiazol-4-ylcarbonyl)piperazin-1-yl]azetidin-1-yl}carbonyl)-2-[3-(trifluoromethyl)phenyl]-1,3-benzoxazole]",482%
12,O=C(c1ccc(Sc2cccc(C(F)(F)F)c2)cc1)N1CC(N2CCN(C(=O)c3nccs3)CC2)C1 [Cpd 431],703%
13,"O=C(c1ccc2c(c1)ncn2-c1ccc(C(F)(F)F)cc1)N1CC(N2CCN(C(=O)c3nccs3)CC2)C1 [Cpd 1064, 5-({3-[4-(1,3-Thiazol-2-ylcarbonyl)piperazin-1-yl]azetidin-1-yl}carbonyl)-1-[4-(trifluoromethyl)phenyl]-1H-benzimidazole]",570%
14,"O=C(c1ccccc1)N1CCN(C2CN(C(=O)c3ccc4c(ccn4-c4ccc(F)cc4F)c3)C2)CC1 [Cpd 579, 1-(2,4-Difluorophenyl)-5-({3-[4-(phenylcarbonyl)piperazin-1-yl]azetidin-1-yl}carbonyl)-1H-indole]",265%
15,"O=C(c1ccccc1)N1CCN(C2CN(C(=O)c3ccc4c(ccn4-c4ncccn4)c3)C2)CC1 [Cpd 595, 5-({3-[4-(Phenylcarbonyl)piperazin-1-yl]azetidin-1-yl}carbonyl)-1-pyrimidin-2-yl-1H-indole]",128%

# Same assay, conditions: rat brain homogenate; compound 10 μM; 2-AG accumulation as percent of vehicle; read-out: Rat Brain 2AG % VehCntrl (%) @ 10 μM
row,Compound,"2-AG accumulation, % of vehicle control at 10 µM"
1,"O=C(c1ccc(-c2cccc(O)c2)cc1)N1CC(N2CCN(C(=O)c3nccs3)CC2)C1 [Cpd 218, 4′-({3-[4-(1,3-Thiazol-2-ylcarbonyl)piperazin-1-yl]azetidin-1-yl}carbonyl)biphenyl-3-ol]",764%
2,"CC(C)COc1cccc(-c2ccc(C(=O)N3CC(N4CCN(C(=O)c5nccs5)CC4)C3)cc2)c1 [Cpd 221, 1-(1-{[3′-(2-Methylpropoxy)biphenyl-4-yl]carbonyl}azetidin-3-yl)-4-(1,3-thiazol-2-ylcarbonyl)piperazine]",945%
3,"O=Cc1cccc(-c2ccc(C(=O)N3CC(N4CCN(C(=O)c5nccs5)CC4)C3)cc2)c1 [Cpd 210, 4′-({3-[4-(1,3-Thiazol-2-ylcarbonyl)piperazin-1-yl]azetidin-1-yl}carbonyl)biphenyl-3-carbaldehyde]",122%
4,"Cc1ccc(-c2nc(C)c(C(=O)N3CC(N4CCN(C(=O)c5nccs5)CC4)C3)s2)cc1 [Cpd 135, 1-(1-{[4-Methyl-2-(4-methylphenyl)-1,3-thiazol-5-yl]carbonyl}azetidin-3-yl)-4-(1,3-thiazol-2-ylcarbonyl)piperazine]",592%
5,"CC(C)(C)OC(=O)N1CC[C@H](Oc2ccc(C(=O)N3CC(N4CCN(C(=O)c5ccccc5)CC4)C3)cc2)C1 [Cpd 434, tert-Butyl (3S)-3-[4-({3-[4-(phenylcarbonyl)piperazin-1-yl]azetidin-1-yl}carbonyl)phenoxy]pyrrolidine-1-carboxylate]",737%
6,"O=C(c1ccc(-c2ccccc2C(F)(F)F)cc1)N1CC(N2CCN(C(=O)c3nccs3)CC2)C1 [Cpd 147, 1-(1,3-Thiazol-2-ylcarbonyl)-4-(1-{[2′-(trifluoromethyl)biphenyl-4-yl]carbonyl}azetidin-3-yl)piperazine]",676%
7,"O=C(c1ccc(-c2ccc(O)cc2)cc1)N1CC(N2CCN(C(=O)c3nccs3)CC2)C1 [Cpd 211, 4′-({3-[4-(1,3-Thiazol-2-ylcarbonyl)piperazin-1-yl]azetidin-1-yl}carbonyl)biphenyl-4-ol]",725%
8,"O=C(c1ccccc1)N1CCN(C2CN(C(=O)c3ccc(OCc4ccc5ccccc5c4)cc3)C2)CC1 [Cpd 380, 1-(1-{[4-(Naphthalen-2-ylmethoxy)phenyl]carbonyl}azetidin-3-yl)-4-(phenylcarbonyl)piperazine]",773%
9,"O=C(c1ccc(-c2cccc3ncccc23)cc1)N1CC(N2CCN(C(=O)c3nccs3)CC2)C1 [Cpd 184, 5-[4-({3-[4-(1,3-Thiazol-2-ylcarbonyl)piperazin-1-yl]azetidin-1-yl}carbonyl)phenyl]quinoline]",956%
10,"O=C(c1ccccc1)N1CCN(C2CN(C(=O)c3ccc(OC4CCCCC4)cc3)C2)CC1 [Cpd 435, 1-(1-{[4-(Cyclohexyloxy)phenyl]carbonyl}azetidin-3-yl)-4-(phenylcarbonyl)piperazine]",198%
11,"O=C(c1ccccc1)N1CC(N2CCN(C(=O)c3ccc(-c4ccccc4)cc3)C(c3ccccc3)C2)C1 (stereo not shown) [Cpd 44, 1-(Biphenyl-4-ylcarbonyl)-2-phenyl-4-[1-(phenylcarbonyl)azetidin-3-yl]piperazine]",238%
12,"CC(C)(C)OC(=O)Nc1cccc(-c2ccc(C(=O)N3CC(N4CCN(C(=O)c5nccs5)CC4)C3)cc2)c1 [Cpd 220, tert-Butyl [4′-({3-[4-(1,3-thiazol-2-ylcarbonyl)piperazin-1-yl]azetidin-1-yl}carbonyl)biphenyl-3-yl]carbamate]",993%
13,"COc1cc(F)c(F)cc1-c1ccc(C(=O)N2CC(N3CCN(C(=O)c4nccs4)CC3)C2)cc1 [Cpd 214, 1-{1-[(4′,5′-Difluoro-2′-methoxybiphenyl-4-yl)carbonyl]azetidin-3-yl}-4-(1,3-thiazol-2-ylcarbonyl)piperazine]",769%
14,"N#CCc1cccc(-c2ccc(C(=O)N3CC(N4CCN(C(=O)c5nccs5)CC4)C3)cc2)c1 [Cpd 207, [4′-({3-[4-(1,3-Thiazol-2-ylcarbonyl)piperazin-1-yl]azetidin-1-yl}carbonyl)biphenyl-3-yl]acetonitrile]",402%
15,O=C(/C=C/c1ccc(SC(F)(F)F)cc1)N1CC(N2CCN(C(=O)c3nccs3)CC2)C1 [Cpd 283],605%
16,"CC(C)Oc1cccc(-c2ccc(C(=O)N3CC(N4CCN(C(=O)c5ccccc5)CC4)C3)cc2)c1 [Cpd 188, 1-(1-{[3′-(1-Methylethoxy)biphenyl-4-yl]carbonyl}azetidin-3-yl)-4-(phenylcarbonyl)piperazine]",506%
